Experiments:
[1] = system: A549-ACE2 infected with SARS-CoV-2; experiment: cell count relative to DMSO; higher = less toxic; details: 24 h
[2] = system: Caco-2; experiment: cell viability relative to DMSO; higher = less toxic; details: 72 h
[3] = system: Calu-3; experiment: as above; details: 72 h
[4] = system: HepG2; experiment: as above; details: 72 h
[5] = system: Vero E6; experiment: as above; details: 72 h
[6] = system: A549-ACE2 infected with SARS-CoV-2; experiment: SARS-CoV-2 infection rate relative to DMSO; higher = more infection; details: 24 h
[7] = system: A549-ACE2; experiment: drug-induced phospholipidosis relative to tamoxifen; higher = more phospholipidosis
[8] = system: A549-ACE2 infected with SARS-CoV-2; experiment: morphology score (similarity to uninfected cells); higher = more like uninfected cells; details: 24 h
[9] = system: Caco-2; experiment: relative viability EC50 (midpoint between 100% and the lowest measured viability); higher = less toxic; details: 72 h
[10] = system: Calu-3; experiment: as above; details: 72 h
[11] = system: HepG2; experiment: as above; details: 72 h
[12] = system: Vero E6; experiment: as above; details: 72 h
[13] = system: Caco-2; experiment: drug sensitivity score (DSS) for viability; higher = more toxic; extreme values may be limits of the assay; details: 72 h
[14] = system: Calu-3; experiment: as above; details: 72 h
[15] = system: HepG2; experiment: as above; details: 72 h
[16] = system: Vero E6; experiment: as above; details: 72 h
[17] = system: U2OS; experiment: cell viability relative to DMSO; higher = less toxic; details: 72 h
[18] = system: U2OS; experiment: relative viability EC50 (midpoint between 100% and the lowest measured viability); higher = less toxic; details: 72 h
[19] = system: U2OS; experiment: drug sensitivity score (DSS) for viability; higher = more toxic; extreme values may be limits of the assay; details: 72 h

CC(=O)N(O)[C@@H]1c2cc(C#N)ccc2OC(C)(C)[C@H]1O
Details	SARS-CoV-2 infection rate, [6] [%]	cell count, [1] [%]	cell viability, [2] [%]	cell viability, [3] [%]	cell viability, [4] [%]	cell viability, [5] [%]	morphology score, [8]
1 nM	–	–	102	103	101	94.6	–
10 nM	–	–	86.8	90.8	108	102	–
100 nM	–	–	93.1	89.9	95.8	96.5	–
0.3 µM	93	105	–	–	–	–	0.26
1000 nM	–	–	104	102	107	102	–
3 µM	77	107	–	–	–	–	0.56
10 µM	40	119	–	–	–	–	0.81
10000 nM	–	–	99.7	95.2	105	95.6	–
30 µM	36	116	–	–	–	–	0.82

drug-induced phospholipidosis [%], [7]
Details	0.3 µM	0.833333 µM	3.33333 µM	6.66667 µM	10 µM	30 µM
24 h	5.83	-1.4	-3.17	0.06	-1.41	3.58
48 h	5.86	-0.55	-0.21	-2.36	-0.04	3.92
72 h	1.36	-4.06	-1.89	-2.87	0.112	6.24

Details	drug sensitivity score	relative viability EC50 [µM]
[9]	–	> 10
[10]	–	> 10
[11]	–	> 10
[12]	–	> 10
[13]	0	–
[14]	0	–
[15]	0	–
[16]	0	–

CC(C)(C)Cn1c(N)nc2ccc(-c3[nH]c(C(C)(C)C)nc3-c3ccc(F)cc3)nc21
Details	SARS-CoV-2 infection rate, [6] [%]	cell count, [1] [%]	cell viability, [2] [%]	cell viability, [3] [%]	cell viability, [4] [%]	cell viability, [5] [%]	cell viability, [17] [%]	morphology score, [8]
1 nM	–	–	102	107	97	93.2	99	–
10 nM	–	–	98.1	94.6	92.8	94.5	98.4	–
100 nM	–	–	89.6	85.5	100	83.6	95.2	–
0.3 µM	118	87	–	–	–	–	–	-0.39
1000 nM	–	–	86.6	75.3	94.9	72.4	91.7	–
3 µM	8	129	–	–	–	–	–	0.95
10 µM	4	124	–	–	–	–	–	0.96
10000 nM	–	–	68	54.1	85.3	58.7	77.4	–
30 µM	8	100	–	–	–	–	–	0.66

drug-induced phospholipidosis [%], [7]
Details	0.3 µM	0.833333 µM	3.33333 µM	6.66667 µM	10 µM	30 µM
24 h	-0.05	-0.99	3.52	13.5	24.9	60.6
48 h	1.57	1.82	5.06	15.9	25.2	57.1
72 h	2.63	3.92	4.98	13.2	27	–

Details	drug sensitivity score	relative viability EC50 [µM]
[11]	–	> 10
[13]	2.9	–
[14]	6.1	–
[15]	0.6	–
[16]	6.7	–
[18]	–	> 10
[19]	1.2	–

O=C(c1ccc(/C=C/c2n[nH]c3ccccc23)cc1)N1CCNCC1 [KW-2449]
Details	SARS-CoV-2 infection rate, [6] [%]	cell count, [1] [%]	cell viability, [2] [%]	cell viability, [4] [%]	cell viability, [5] [%]	cell viability, [17] [%]	morphology score, [8]
1 nM	–	–	98.7	102	103	103	–
10 nM	–	–	98.6	108	104	102	–
100 nM	–	–	97.2	98.6	99.3	101	–
0.3 µM	98	105	–	–	–	–	0.33
1000 nM	–	–	99	94.6	101	100	–
3 µM	79	59	–	–	–	–	0.51
10 µM	26	39	–	–	–	–	0.62
10000 nM	–	–	108	69.6	95.3	63.1	–
30 µM	40	1	–	–	–	–	0.12

drug-induced phospholipidosis [%], [7]
Details	0.3 µM	0.833333 µM	3.33333 µM	6.66667 µM	10 µM
24 h	-0.51	-0.69	3.6	13.3	8.57
48 h	-1.26	-3.23	0.95	9.27	0.37
72 h	-0.724	-3.37	–	–	–

Details	drug sensitivity score	relative viability EC50 [µM]
[9]	–	> 10
[12]	–	> 10
[13]	0	–
[15]	2.2	–
[16]	0	–
[19]	1.7	–

CC(C)C[C@H](NC(=O)CNC(=O)c1cc(Cl)ccc1Cl)B1OC(=O)C(CC(=O)O)(CC(=O)O)O1 [MLN9708]
Details	SARS-CoV-2 infection rate, [6] [%]	cell count, [1] [%]	cell viability, [2] [%]	cell viability, [3] [%]	cell viability, [4] [%]	cell viability, [5] [%]	cell viability, [17] [%]	morphology score, [8]
1 nM	–	–	99.6	95.1	89.6	97	101	–
10 nM	–	–	94.6	95.1	104	99.5	95.8	–
0.1 µM	88	88	–	–	–	–	–	0.35
100 nM	–	–	11.4	19.6	65	44.1	43.2	–
0.3 µM	83	78	–	–	–	–	–	0.28
1 µM	48	65	–	–	–	–	–	0.27
1000 nM	–	–	5.1	6.6	4.3	10.5	0.5	–
3 µM	33	57	–	–	–	–	–	0.28
10000 nM	–	–	5	5.2	0.5	4.8	0	–

[7], 24 h
Details	drug-induced phospholipidosis [%]
0.3 µM	4.58
0.833333 µM	-2.83

Details	drug sensitivity score	relative viability EC50 [µM]
[11]	–	0.139
[13]	28.8	–
[14]	27.3	–
[15]	22.1	–
[16]	23.8	–
[19]	24.7	–

c1ccc(-c2ccc(C(c3ccccc3)n3ccnc3)cc2)cc1 (stereo not drawn) [bifonazole]
Details	SARS-CoV-2 infection rate, [6] [%]	cell count, [1] [%]	cell viability, [2] [%]	cell viability, [3] [%]	cell viability, [4] [%]	cell viability, [5] [%]	cell viability, [17] [%]	morphology score, [8]
1 nM	–	–	98	98.4	98.2	85.9	96.9	–
10 nM	–	–	99.7	95	97.1	91.2	95.9	–
100 nM	–	–	96.1	106	91.8	86.5	97.2	–
0.3 µM	91	99	–	–	–	–	–	0.26
1000 nM	–	–	94.9	97.1	98.6	91.5	95.2	–
3 µM	103	112	–	–	–	–	–	-0.04
10 µM	106	111	–	–	–	–	–	0.19
10000 nM	–	–	78.7	99.1	93.6	100	94.7	–
30 µM	89	102	–	–	–	–	–	0.57

drug-induced phospholipidosis [%], [7]
Details	0.3 µM	0.833333 µM	3.33333 µM	6.66667 µM	10 µM	30 µM
24 h	-0.45	-9.45	-4.39	3.56	6	40.1
48 h	3.19	-4.19	2.93	5.02	14.4	44.7
72 h	2.27	-1.31	4.12	5.49	19.7	–

Details	drug sensitivity score	relative viability EC50 [µM]
[9]	–	> 10
[10]	–	> 10
[11]	–	> 10
[12]	–	> 10
[13]	1.2	–
[14]	0	–
[15]	0	–
[16]	0	–
[18]	–	> 10
[19]	0	–

— the supplement of paper PMC13380429
